From article PMC12281142, “A potent phenylalkylamine disrupts mycobacterial membrane bioenergetics and augments bactericidal activity of bedaquiline” (iScience, 2025)
Converted amounts (≈) assume the structure as drawn. Read-outs that look alike come from different tables or passages of the source.

Legend:
Mab abscessus = experiment: Time-kill kinetics, Mab abscessus; format: cell-based, Mycobacterium abscessus subsp. abscessus; details: 2xMIC90 (170 μM, 89 μg/mL)
M. bovis BCG [1] = details: 2x MIC90 over 24 h
M. bovis BCG [2] = format: cell-based, Mycobacterium bovis BCG; details: PhA2 2x–4x MIC90BCG, TDZ 80 μM, 24 h
M. bovis BCG-pclgR-RFP = format: cell-based, Mycobacterium bovis BCG; details: 0.25x – 2x MIC90 (controls 10 μM), 24 h
M. smegmatis mc2155 = experiment: MIC against M. smegmatis mc2155; format: cell-based, Mycobacterium smegmatis; details: Mycolicibacterium smegmatis
Mtb H37Rv = experiment: MIC by broth microdilution against Mtb H37Rv; format: cell-based, Mycobacterium tuberculosis; details: Mycobacterium tuberculosis, H37RV, 120 h
[3] = tested on: Mab massiliense CCUG 48898-T; experiment: MIC against Mab massiliense CCUG 48898-T; format: cell-based, Mycobacterium abscessus subsp. massiliense; details: Mycobacteroides abscessus; for MIC50: CCUG48898, 72 h, 3 days
M. bovis BCG [4] = format: cell-based, Mycobacterium bovis BCG; details: 2x MIC90BCG, 6 h time point, cultures still viable
M. bovis BCG [5] = format: cell-based, Mycobacterium bovis BCG; details: 24 h
M. bovis BCG [6] = format: cell-based, Mycobacterium bovis BCG; details: 2x MIC90 (19 μg/mL)
M. bovis BCG [7] = format: cell-based, Mycobacterium bovis BCG; details: 2xMIC90BCG
[8] = tested on: Mab bolletii CCUG 50184-T; experiment: MIC against Mab bolletii CCUG 50184-T; format: cell-based, Mycobacterium abscessus subsp. bolletii; details: Mycobacteroides abscessus; for MIC50: CCUG50184, 72 h, 3 days
clinical isolates of Mab = experiment: MIC50 against Mab clinical isolates; format: cell-based, Mycobacterium abscessus; details: Mycobacteroides abscessus
HepG2 = experiment: Cytotoxicity in HepG2 cells; format: cell-based, human; details: Homo sapiens, HepG2; 48 h, growth suppressed by 50% vs untreated
In short: (§1)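 Cells seeded at 50,000/well, allowed to adhere overnight in DMEM at 37 °C/5% CO2, then exposed 48 h to compound at a final 0.5% v/v DMSO. Viability read by MTS-type reagent (3 h, absorbance 490 nm), corrected for compound and vehicle blanks, and normalized to untreated cells. IC50 from sigmoidal fit of viability versus log concentration, at least 3 determinations.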

M. bovis BCG [9] = format: cell-based, Mycobacterium bovis BCG; details: exponential phase M. bovis BCG, 5 days
M. bovis BCG [10] = experiment: microbe, parasite or virus in culture; format: cell-based, Mycobacterium bovis BCG
[11] = tested on: nonreplicating M. bovis BCG; format: cell-based, Mycobacterium bovis BCG; details: 5 days, Wayne model
Vero E6 = experiment: Cytotoxicity in Vero E6 cells; format: cell-based, African green monkey; details: growth suppressed by 50% vs untreated
In short: as §1

M. bovis BCG [12] = format: cell-based, Mycobacterium bovis BCG; details: 0.5x to 4x MIC90BCG
M. bovis BCG [13] = format: cell-based, Mycobacterium bovis BCG; details: luminescence normalized against CFU
[14] = 7H9 medium (first value of cell)
[15] = CA-MHB medium (second value of cell)

Question: `CCCCCCCCC(C#N)(CCCN(C)CCc1ccc(OC)c(OC)c1)c1ccc(OC)c(OC)c1` (stereo not drawn) [PhA2] was tested. Which “reduction of CFUs” value (Mab abscessus) did it give?
Answer: 10^5 fold

Question: What about the membrane permeabilization (M. bovis BCG [1]) of the same molecule?
Answer: induced membrane permeabilization

Question: And the “NADH/NAD+ ratio” value (M. bovis BCG [2])?
Answer: higher ratios

Question: And the “induction of pclgR promoter activity” value (M. bovis BCG-pclgR-RFP)?
Answer: induced promoter activity in a dose dependent manner

Question: What about the MIC50 (M. smegmatis mc2155; MC2155, 24 h, incubation 1 day, read-out: M. smegmatis mc2155 MIC50 (Table S4)) of the same molecule?
Answer: 41 µM (≈ 21.5 µg/mL)

Question: What about the MIC90 (M. smegmatis mc2155; MC2155, 24 h, incubation 1 day, read-out: M. smegmatis mc2155 MIC90 (Table S4)) of the same molecule?
Answer: 58 µM (≈ 30.4 µg/mL)

Question: What about the MIC90 (M. smegmatis mc2155; MC2155, read-out: MIC90 M. smegmatis) of the same molecule?
Answer: 52.5 µM (≈ 27.5 µg/mL)

Question: And the MIC50 (Mtb H37Rv; read-out: MIC50 Mtb H37Rv)?
Answer: 17 µM (≈ 8.92 µg/mL)

Question: What about the MIC90 (Mtb H37Rv; second value of cell MIC50/MIC90, incubation 5 days, read-out: MIC90 Mtb H37Rv) of the same molecule?
Answer: 25 µM (≈ 13.1 µg/mL)

Question: And the MIC90 ([3]; CCUG48898, 7H9 broth (first value))?
Answer: 91 µM (≈ 47.8 µg/mL)

Question: What about the MIC50 [3, 14] of the same molecule?
Answer: 61 µM (≈ 32 µg/mL)

Question: What about the MIC50 [3, 15] of the same molecule?
Answer: 11 µM (≈ 5.77 µg/mL)

Question: And the MIC90 ([3]; CCUG48898, camH broth (second value))?
Answer: 28 µM (≈ 14.7 µg/mL)

Question: And the membrane depolarization (M. bovis BCG [4])?
Answer: depolarization was evident

Question: And the “methylene blue decolorization (O2 uptake)” value (M. bovis BCG [5]; 0.5x and 1x MIC90BCG)?
Answer: Decolorization (active O2 uptake)

Question: What about the “methylene blue decolorization (O2 uptake)” value (M. bovis BCG [5]; 2x and 4x MIC90BCG) of the same molecule?
Answer: No decolorization

Question: And the oxygen consumption rate (M. bovis BCG [6])?
Answer: uptake was reduced to the basal level

Question: What about the “reduction of CFUs” value (M. bovis BCG [7]; 21-day time point) of the same molecule?
Answer: 10^5 fold

Question: What about the “regrowth in time-kill curve” value (M. bovis BCG [7]; 21 days) of the same molecule?
Answer: no rebound in growth

Question: What about the MIC90 ([8]; CCUG50184, 7H9 broth (first value)) of the same molecule?
Answer: 95 µM (≈ 49.9 µg/mL)

Question: What about the MIC50 [8, 14] of the same molecule?
Answer: 62 µM (≈ 32.5 µg/mL)

Question: And the MIC50 [8, 15]?
Answer: 16 µM (≈ 8.4 µg/mL)

Question: And the MIC90 ([8]; CCUG50184, camH broth (second value))?
Answer: 27 µM (≈ 14.2 µg/mL)

Question: What about the MIC50 (clinical isolates of Mab; read-out: MIC50 seven Mab clinical isolates) of the same molecule?
Answer: 22 to 39 µM

Question: What about the MIC50 (clinical isolates of Mab; Mab clinical isolate M9, 7H9 broth, read-out: MIC50 M9) of the same molecule?
Answer: 26.5 µM

Question: And the MIC50 (clinical isolates of Mab; Mab clinical isolate M111, 7H9 broth, read-out: MIC50 M111)?
Answer: 24 µM

Question: What about the MIC50 (clinical isolates of Mab; Mab clinical isolate M232, 7H9 broth, read-out: MIC50 M232) of the same molecule?
Answer: 22 µM

Question: What about the MIC50 (clinical isolates of Mab; Mab clinical isolate M337, 7H9 broth, read-out: MIC50 M337) of the same molecule?
Answer: 25 µM

Question: What about the MIC50 (clinical isolates of Mab; Mab clinical isolate M404, 7H9 broth, read-out: MIC50 M404) of the same molecule?
Answer: 26.5 µM

Question: What about the MIC50 (clinical isolates of Mab; Mab clinical isolate M422, 7H9 broth, read-out: MIC50 M422) of the same molecule?
Answer: 23 µM

Question: What about the MIC50 (clinical isolates of Mab; Mab clinical isolate M506, 7H9 broth, read-out: MIC50 M506) of the same molecule?
Answer: 23.5 µM

Question: What about the MIC50 (clinical isolates of Mab; range over isolates, read-out: MIC50 seven Mab clinical isolates) of the same molecule?
Answer: 12 to 21 µg/mL

Question: What about the IC50 (HepG2) of the same molecule?
Answer: 29 µM

Question: What about the “MBC99.9 (10^3-fold kill)” value (M. bovis BCG [9]) of the same molecule?
Answer: 2 x MIC90

Question: And the “MIC90 BCG” value (M. bovis BCG [10]; M. bovis BCG)?
Answer: 9 µg/mL (≈ 17.2 µM)

Question: What about the MIC50 (M. bovis BCG [10]; M. bovis BCG, broth dilution, growth reduced by 50% vs untreated) of the same molecule?
Answer: 10 µM (≈ 5.25 µg/mL)

Question: And the MIC50 (M. bovis BCG [10]; Mycobacterium tuberculosis variant bovis BCG, BCG, 120 h, read-out: MIC50 BCG With Glycerol, 7H9 broth with glycerol, 5 days)?
Answer: 10 µM (≈ 5.25 µg/mL)

Question: And the MIC50 (M. bovis BCG [10]; Mycobacterium tuberculosis variant bovis BCG, BCG, 120 h, read-out: MIC50 BCG Without Glycerol, 7H9 broth without glycerol, 5 days)?
Answer: 22 µM (≈ 11.5 µg/mL)

Question: And the MIC50 (M. bovis BCG [10]; Mycobacterium tuberculosis variant bovis BCG, BCG, M. bovis BCG, broth dilution, growth reduced by 50% vs untreated)?
Answer: 10 to 16 µM (≈ 5.25 to 8.4 µg/mL)

Question: What about the MIC90 (M. bovis BCG [10]; Mycobacterium tuberculosis variant bovis BCG, BCG, M. bovis BCG, broth dilution, growth reduced by 90% vs untreated) of the same molecule?
Answer: 18 µM

Question: And the MIC50 (M. bovis BCG [10]; Mycobacterium tuberculosis variant bovis BCG, BCG, read-out: M. bovis BCG MIC50 (Table S4))?
Answer: 10 µM (≈ 5.25 µg/mL)

Question: What about the MIC90 (M. bovis BCG [10]; Mycobacterium tuberculosis variant bovis BCG, BCG, read-out: M. bovis BCG MIC90 (Table S4)) of the same molecule?
Answer: 18 µM

Question: And the MIC90 (M. bovis BCG [10]; Mycobacterium tuberculosis variant bovis BCG, BCG, read-out: MIC90 (Table S1), M. bovis BCG, broth dilution)?
Answer: 18 µM

Question: And the MIC90 (M. bovis BCG [10]; Mycobacterium tuberculosis variant bovis BCG, BCG, read-out: MIC90 BCG, M. bovis BCG)?
Answer: 9.4 µg/mL

Question: What about the “kill of hypoxic M. bovis BCG” value ([11]; 2x MIC90BCG) of the same molecule?
Answer: resisted killing

Question: What about the “kill of hypoxic M. bovis BCG” value ([11]; 4x MIC90BCG) of the same molecule?
Answer: 10^3 fold

Question: And the IC50 (Vero E6; 48 h)?
Answer: 28 µM

Question: What about the IC50 (Vero E6; Chlorocebus sabaeus, Vero C1008, 48 h) of the same molecule?
Answer: 28 to 29 µM

Question: What about the “formazan formation from MTS” value (M. bovis BCG [12]) of the same molecule?
Answer: dose dependent reduction in formazan

Question: And the ATP level (M. bovis BCG [13]; 2x MIC90, 12 h)?
Answer: 73%

Question: What about the ATP level (M. bovis BCG [13]; 2x MIC90, 48 h) of the same molecule?
Answer: 27%
